Reference: patent publication US4327222A, “3,4-Diarylisoxazol-5-acetic acids and process for making same” (priority 1979, dated 1982)
“Also recorded” adds a separate entry of the source. Read-outs that look alike come from different tables or passages of the source.

How the values were obtained:
[1] = test system: carrageenin-induced paw edema; experiment: Anti-inflammatory: carrageenin-induced paw edema test in the rat (modified Winter et al.); assay type: in vivo; conditions: for ED50: po, read-out: ED50 p.o. Anti-inflammatory (Carrageenin)
rats = experiment: in vivo; assay type: in vivo
Method: (§1) Acute toxicities are determined in rats and in mice and the LD50 's are calculated according to the method of Litchfield and Wilcoxon, J.Pharmacol.Exp. Therap.

[2] = test system: phenylquinone-induced muscular writhing; experiment: Analgesic: phenylquinone-induced muscular writhing test in mice (modified Siegmund et al.); assay type: in vivo; conditions: for ED50: Mus musculus, po, read-out: ED50 p.o. Analgesic (Phenylquinone)
cotton pellet granuloma = experiment: Antigranuloma: cotton pellet granuloma test in the rat; assay type: in vivo
Method: (§2) 138, 405 (1962), both in the rat. […] Acute toxicities are determined in rats and in mice and the LD50 's are calculated according to the method of Litchfield and Wilcoxon, J.Pharmacol.Exp. Therap. 96, 99 (1949).

in vivo [3] = conditions: mouse, po, mice, read-out: Acute Toxicity (LD50) p.o.
Method: as §2

yeast-induced fever = experiment: Anti-pyretic: yeast-induced fever test in rats; assay type: in vivo; conditions: Rattus norvegicus, po, read-out: ED50 p.o. Anti-Pyretic (Yeast)
in vivo [4] = assay type: in vivo; conditions: rat, in vivo, po; rats; read-out: Acute Toxicity (LD50) p.o.
Method: as §1

| SMILES | ED50 ([1]; rat, carrageenin paw edema) | ED50 (yeast-induced fever; rats, yeast-induced fever) | ED50 ([2]; mice, phenylquinone writhing) | further results |
| --- | --- | --- | --- | --- |
| COc1ccc(-c2noc(CC(=O)O)c2-c2ccc(OC)cc2)cc1 [3,4,-Di(p-methoxyphenyl)isoxazol-5-acetic Acid] |  |  |  | ED50 ([1]; Rattus norvegicus): 25 to 40 mg/kg; anti-inflammatory activity (in words) ([1]; rat, listed as Example 4): remarkable anti-inflammatory and analgesic activities; also recorded: well within the range of the same activities shown for a number of established anti-inflammatory drugs and are markedly superior to the activities of known 3-arylisoxazol-5-acetic acids; therapeutic index LD50/anti-inflammatory ED50 (in words) (rats; LD50 / anti-inflammatory ED50): favourable therapeutic index; order of toxicity (in words) (rats; rats and mice): low order of toxicity; ED50 [2]: 1.8 mg/kg; analgesic activity (in words) ([2]; mice, listed as Example 4): remarkable anti-inflammatory and analgesic activities; also recorded: well within the range of the same activities shown for a number of established anti-inflammatory drugs and are markedly superior to the activities of known 3-arylisoxazol-5-acetic acids; activity in antigranuloma test (in words) (cotton pellet granuloma): active in antigranuloma test; LD50 (in vivo [3]): 1000 mg/kg; ED50 (yeast-induced fever): > 120 mg/kg |
| O=C(O)Cc1onc(-c2ccccc2)c1-c1ccccc1 [3,4-Diphenylisoxazol-5-acetic Acid] | 120 mg/kg | 120 mg/kg |  | LD50 (in vivo [3]): 670 mg/kg |
| COc1ccc(-c2cc(CC(=O)O)on2)cc1 [3-(p-methoxyphenyl)isoxazol-5-acetic acid] | > 135 mg/kg | > 120 mg/kg | 60 mg/kg |  |
| O=C(O)Cc1cc(-c2ccccc2)no1 [3-Phenylisoxazol-5-acetic Acid, 3-phenylisoxazol-5-acetic acid] | 70 to 80 mg/kg | > 135 mg/kg | 60 to 90 mg/kg | Acute Toxicity p.o. (dose with 100% mortality) (rats; p.o., rats, 100% mortality): 1500 mg/kg |
| CC(=O)Oc1ccccc1C(=O)O [Aspirin] | 60 to 90 mg/kg |  | 70 to 100 mg/kg | LD50 (in vivo [4]): 1740 mg/kg |
| CC(C)Cc1ccc(C(C)C(=O)O)cc1 (centres unmarked) [Ibuprofen] | 15 to 30 mg/kg | 15 mg/kg | 15 to 25 mg/kg |  |
| COc1ccc2c(c1)c(CC(=O)O)c(C)n2C(=O)c1ccc(Cl)cc1 [Indomethacin] |  |  |  | ED50 ([1]; Rattus norvegicus): 7 to 9 mg/kg; LD50 (in vivo [4]): 27 mg/kg; ED50 [2]: < 1 mg/kg; ED50 (yeast-induced fever): 3 to 5 mg/kg |
| Cc1cccc(Nc2ccccc2C(=O)O)c1C [Mefenamic Acid] | 45 to 55 mg/kg | 7.5 to 10 mg/kg | 7.5 to 10 mg/kg |  |
| COc1ccc2cc([C@H](C)C(=O)O)ccc2c1 [Naproxen] | 10 to 12 mg/kg | 15 to 20 mg/kg | 7.5 to 10 mg/kg |  |
| COc1ccc(-c2noc(C(OC)C(=O)O)c2-c2ccc(OC)cc2)cc1 (stereo not drawn) [Sodium 3,4-Di(p-methoxyphenyl)isoxazol-5α-methoxyacetate] | 120 mg/kg | > 120 mg/kg | 60 mg/kg |  |
| CC1=C(CC(=O)O)c2cc(F)ccc2/C1=C\c1ccc([S+](C)[O-])cc1 (centres unmarked) [Sulindac] | 20 to 30 mg/kg | 7.5 to 10 mg/kg | 7.5 to 10 mg/kg |  |
